target: T1, Lp-PLA2 (Homo sapiens, UniProt Q13093); assay: Lipoprotein-associated phospholipase A2 (Lp-PLA2) human plasma assay (Thio-PAF assay); assay type: biochemical; settings: Comparison of activity data (I); pooled human plasma, 2-thio-PAF substrate, 30-min pre-incubation
T1 construct: aliquoted and thawed 40 μL of pooled human plasma was previously added; from tissue; host or cells: pooled human plasma
T1 sequence (Q13093 22-441): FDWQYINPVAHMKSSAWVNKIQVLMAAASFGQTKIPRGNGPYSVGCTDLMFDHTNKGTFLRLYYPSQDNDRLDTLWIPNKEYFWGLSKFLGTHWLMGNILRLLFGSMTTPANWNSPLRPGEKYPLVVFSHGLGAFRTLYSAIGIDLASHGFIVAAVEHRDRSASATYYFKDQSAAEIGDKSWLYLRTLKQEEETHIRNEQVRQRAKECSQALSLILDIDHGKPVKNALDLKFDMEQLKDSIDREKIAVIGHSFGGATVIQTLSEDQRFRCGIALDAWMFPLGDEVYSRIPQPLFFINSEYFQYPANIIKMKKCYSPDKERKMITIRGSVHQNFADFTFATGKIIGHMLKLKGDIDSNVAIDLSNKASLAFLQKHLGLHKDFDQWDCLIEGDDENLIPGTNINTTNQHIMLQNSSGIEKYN

Which IC50 does the source give for `O=c1nc(OCc2cc(F)c(F)c(F)c2)cc2n1C[C@@H]1COCCN21` [Example 123 in WO2016011930A1, reference compound] here?
Its IC50 is 75.3 nM.

same assay, conditions: Lp-PLA2 human plasma assay (Thio-PAF), pooled human plasma, 30-min pre-incubation at room temperature

For `COc1c(OCc2ccc(F)c(F)c2)nc(=O)n2c1N1C[C@@H]3C[C@]1(CO3)C2` [Example 115, (3S,11aR)-7-((3,4-difluorobenzyl)oxy)-6-methoxy-3,4-dihydro-1H,9H,11H-3,11a-methanopyrimido[6′,1′:2,3] imidazo[5,1-c][1,4]oxazin-9-one], which IC50 is on record?
The IC50 was 5.2 nM.

Which IC50 does the source give for `O=c1nc(OCc2ccc(Oc3ccc(C(F)(F)F)nc3)c(F)c2)cc2n1CC13CC(CN21)C3` [Example 117, 3-((3-fluoro-4-((6-(trifluoromethyl)pyridin-3-yl)oxy)benzyl)oxy)-7,8-dihydro-1H,6H,9H-7,8a-methanopyrrolo[1′,2′:3,4] imidazo[1,2-c]pyrimidin-1-one] here?
The IC50 was 9.1 nM.

With `O=c1nc(OCc2ccc(Oc3ccnc(C(F)(F)F)c3)c(F)c2)cc2n1CC13CCC(CC1)N23` [Example 118, 3-((3-fluoro-4-((2-(trifluoromethyl)pyridin-4-yl)oxy)benzyl)oxy)-7,8-dihydro-1H,6H,9H-6,8a-ethanopyrrolo[1′,2′:3,4] imidazo[1,2-c]pyrimidin-1-one] as the compound, how does the IC50 read?
Its IC50 is 6 nM.

Which IC50 does the source give for `Cc1cc(Oc2ccc(COc3cc4n(c(=O)n3)CC35CC(CN43)C5)cc2F)ccn1` [Example 119, 3-((3-fluoro-4-((2-methyl-pyridin-4-yl)oxy)benzyl)oxy)-7,8-dihydro-1H,6H,9H-7,8a-methanopyrrolo[1′,2′:3,4] imidazo[1,2-c]pyrimidin-1-one] here?
Its IC50 is 8.2 nM.

Which IC50 does the source give for `Cc1cc(Oc2ccc(COc3cc4n(c(=O)n3)CC35CCC(CC3)N45)cc2F)ccn1` [Example 120, 3-((3-fluoro-4-((2-methyl-pyridin-4-yl)oxy)benzyl)oxy)-7,8-dihydro-1H,6H,9H-6,8a-ethanopyrrolo[1′,2′:3,4] imidazo[1,2-c]pyrimidin-1-one] here?
Its IC50 is 8.7 nM.

With `O=c1nc(OCc2ccc(Oc3ccc(C(F)(F)F)nc3)c(F)c2)cc2n1CC13CCC(CC1)N23` [Example 121, 3-((3-fluoro-4-((6-(trifluoromethyl)pyridin-3-yl)oxy)benzyl)oxy)-7,8-dihydro-1H,6H,9H-6,8a-ethanopyrrolo[1′,2′:3,4] imidazo[1,2-c]pyrimidin-1-one] as the compound, how does the IC50 read?
The IC50 was 8.6 nM.

For `O=c1nc(OCc2ccc(Oc3cnc(C(F)(F)F)nc3)c(F)c2)cc2n1CC13CC(CN21)C3` [Example 122, 3-((3-fluoro-4-((2-(trifluoromethyl)pyrimidin-5-yl)oxy)benzyl)oxy)-7,8-dihydro-1H,6H,9H-7,8a-methanopyrrolo[1′,2′:3,4] imidazo[1,2-c]pyrimidin-1-one], which IC50 is on record?
The IC50 was 9.4 nM.

How did the IC50 turn out when `O=c1nc(OCc2cc(F)c(Oc3ccnc(C(F)(F)F)c3)c(F)c2)cc2n1C[C@]13CC[C@H](CN21)C3` [Example 123] was run?
Its IC50 is 4.4 nM.

Which IC50 does the source give for `O=c1nc(OCc2ccc(Oc3cccc(C(F)(F)F)c3)c(F)c2)cc2n1CC13CC(CN21)C3` [Example 124, 3-((3-fluoro-4-(3-(trifluoromethyl)phenoxy)benzyl)oxy)-7,8-dihydro-1H,6H,9H-7,8a-methanopyrrolo[1′,2′:3,4] imidazo[1,2-c]pyrimidin-1-one] here?
Its IC50 is 6.1 nM.

With `O=c1nc(OCc2ccc(Oc3ccc(Cl)c(C(F)(F)F)c3)c(F)c2)cc2n1CC13CC(CN21)C3` [Example 125, 3-((3-fluoro-4-(4-chloro-3-(trifluoromethyl)phenoxy)benzyl)oxy)-7,8-dihydro-1H,6H,9H-7,8a-methanopyrrolo[1′,2′:3,4] imidazo[1,2-c]pyrimidin-1-one] as the compound, how does the IC50 read?
The IC50 was 3 nM.

With `O=c1nc(OCc2ccc(Oc3cccc(C(F)(F)F)c3)c(F)c2)cc2n1CC13CCC(CC1)N23` [Example 126, 3-((3-fluoro-4-(3-(trifluoromethyl)phenoxy)benzyl)oxy)-7,8-dihydro-1H,6H,9H-6,8a-ethanopyrrolo[1′,2′:3,4] imidazo[1,2-c]pyrimidin-1-one] as the compound, how does the IC50 read?
The IC50 was 5 nM.

With `O=c1nc(OCc2ccc(Oc3ccc(Cl)c(C(F)(F)F)c3)c(F)c2)cc2n1CC13CCC(CC1)N23` [Example 127, 3-((3-fluoro-4-(4-chloro-3-(trifluoromethyl)phenoxy)benzyl)oxy)-7,8-dihydro-1H,6H,9H-6,8a-ethanopyrrolo[1′,2′:3,4] imidazo[1,2-c]pyrimidin-1-one] as the compound, how does the IC50 read?
Its IC50 is 2.6 nM.

Which IC50 does the source give for `O=c1nc(OCc2ccc(Oc3cnc(C(F)(F)F)nc3)c(F)c2)cc2n1CC13CCC(CC1)N23` [Example 128, 3-((3-fluoro-4-((2-(trifluoromethyl)pyrimidin-5-yl)oxy)benzyl)oxy)-7,8-dihydro-1H,6H,9H-6,8a-ethanopyrrolo[1′,2′:3,4] imidazo[1,2-c]pyrimidin-1-one] here?
The IC50 was 8.4 nM.

For `O=c1nc(OCc2ccc(Oc3ccc(C(F)(F)F)cc3)c(F)c2)cc2n1CC13CC(CN21)C3` [Example 129, 3-((3-fluoro-4-(4-(trifluoromethyl)phenoxy)benzyl)oxy)-7,8-dihydro-1H,6H,9H-7,8a-methanopyrrolo[1′,2′:3,4] imidazo[1,2-c]pyrimidin-1-one], which IC50 is on record?
The IC50 was 6.5 nM.

Which IC50 does the source give for `O=c1nc(OCc2ccc(Oc3ccc(C(F)(F)F)cc3)c(F)c2)cc2n1CC13CCC(CC1)N23` [Example 130, 3-((3-fluoro-4-(4-(trifluoromethyl)phenoxy)benzyl)oxy)-7,8-dihydro-1H,6H,9H-6,8a-ethanopyrrolo[1′,2′:3,4] imidazo[1,2-c]pyrimidin-1-one] here?
Its IC50 is 4.8 nM.

How did the IC50 turn out when `O=C1N(Cc2ccccc2)[C@@H]2CN3c4cc(OCc5cc(F)c(Oc6ccnc(C(F)(F)F)c6)c(F)c5)nc(=O)n4C[C@]13C2` [Example 131] was run?
Its IC50 is 7.9 nM.

For `O=c1nc(OCCc2ccc(Oc3cccc(C(F)(F)F)c3)cc2)cc2n1C[C@]13CO[C@H](CN21)C3` [Example 132, (3S,11aR)-7-(4-(3-(trifluoromethyl)phenoxy)phenethoxy)-3,4-dihydro-1H,9H,11H-3,11a-methanopyrimido[6′,1′:2,3] imidazo[5,1-c][1,4]oxazin-9-one], which IC50 is on record?
Its IC50 is 5.9 nM.

How did the IC50 turn out when `O=c1nc(OCCc2ccc(Oc3cccc(C(F)(F)F)c3)cc2)cc2n1CC13CC(CN21)C3` [Example 133, 3-(4-(3-(trifluoromethyl)phenoxy)phenethoxy)-7,8-dihydro-1H,6H,9H-7,8a-methanopyrrolo[1′,2′:3,4] imidazo[1,2-c]pyrimidin-1-one] was run?
Its IC50 is 36.6 nM.

How did the IC50 turn out when `O=c1nc(OCc2cc(F)c(Oc3ccccc3)c(F)c2)cc2n1C[C@]13CO[C@H](CN21)C3` [Example 135, (3S,11aR)-7-((3,5-difluoro-4-phenoxybenzyl)oxy)-3,4-dihydro-1H,9H,11H-3,11a-methanopyrimido[6′,1′:2,3] imidazo[5,1-c][1,4]oxazin-9-one] was run?
Its IC50 is 17.2 nM.

For `O=c1nc(OCc2cc(F)c(Oc3ccc(F)c(F)c3)c(F)c2)cc2n1C[C@]13CO[C@H](CN21)C3` [Example 136], which IC50 is on record?
The IC50 was 3.8 nM.

Which IC50 does the source give for `O=c1nc(OCc2cc(F)c(Oc3cccc(F)c3)c(F)c2)cc2n1C[C@]13CO[C@H](CN21)C3` [Example 137] here?
Its IC50 is 5.8 nM.

Which IC50 does the source give for `COCC12CN3c4cc(OCc5ccc(Oc6ccnc(C(F)(F)F)c6)c(F)c5)nc(=O)n4CC3(C1)C2` [Example 138, 3-((3-fluoro-4-((2-(trifluoromethyl)pyridin-4-yl)oxy)benzyl)oxy)-7-(methoxymethyl)-7,8-dihydro-1H,6H,9H-7,8a-methanopyrrolo[1′,2′:3,4] imidazo[1,2-c]pyrimidin-1-one] here?
Its IC50 is 2.4 nM.

Reference: US20230044787A1, “TRICYCLE DIHYDROIMIDAZOPYRIMIDONE DERIVATIVE, PREPARATION METHOD THEREOF, PHARMACEUTICAL COMPOSITION AND USE THEREOF” (priority 2019, published 2023)
